Results reported in patent US7897569B2, “Use of HMGB fragments as anti-inflammatory agents” (The Feinstein Institute for Medical Research, priority 2001, dated 2011).
Ends that are not written are not given here.

B1: carboxyl-truncated HMGB1: Human HMGB1 mutant in which the carboxy terminus was deleted, SEQ ID NO:19 (protein)
chain: MGKGDPKKPTGKMSSYAFFVQTCREEHKKKHPDASVNFSEFSKKCSERWKTMSAKEKGKFEDMAKADKARYEREMKTYIPPKGETKKKFKDPNAPKRLPSAFFLFCSEYRPKIKGEHPGLSIGDVAKKLGEMWNNTAADDKQPYEKKAAKLKEKYEKDIAAYRAKGKPDAAKKGVVKAEKSK

System: RAW 264.7 cells
Experiment: TNF release from RAW 264.7 cells (L929 cytotoxicity bioassay)
Type: cell-based, murine
Details: for TNF release by synthetic peptide fragment of B box: no polymyxin B
Protocol: Murine macrophage-like RAW 264.7 cells (American Type Culture Collection, Rockville, Md.) were cultured in RPMI 1640 medium (Life Technologies, Grand Island N.Y.) supplemented with 10% fetal bovine serum (Gemini, Catabasas, Calif.), penicillin and streptomycin (Life Technologies) and were used at 90% confluence in serum-free Opti-MEM I medium (Life Technologies, Grand Island, N.Y.). […] Polymyxin B was not used in experiments of synthetic peptide studies.
TNF release was measured by a standard murine fibroblast L929 (ATCC, American Type Culture Collection, Rockville, Md.) cytotoxicity bioassay (Bianchi et al., Journal of Experimental Medicine 183:927-936, 1996) with the minimum detectable concentration of 30 pg/ml. Recombinant mouse TNF was obtained from R&D system Inc., (Minneapolis, Minn.). Murine fibroblast L929 cells (ATCC) were cultured in DMEM (Life Technologies, Grand Island, N.Y.) supplemented with 10% fetal bovine serum (Gemini, Catabasas, Calif.), penicillin (50 units/ml) and streptomycin (50 μg/ml) (Life Technologies) in a humidified incubator with 5% CO2.
The effect of the mutants on TNF release from Murine macrophage-like RAW 264.7 cells (ATCC) was carried out as follows. RAW 264.7 cells were cultured in RPMI 1640 medium (Life Technologies, Grand Island N.Y.) supplemented with 10% fetal bovine serum (Gemini, Catabasas, Calif.), penicillin and streptomycin (Life Technologies). Polymyxin (Sigma, St. Louis, Mo.) was added at 100 units/ml to suppress the activity of any contaminating LPS. Cells were incubated with 1 μg/ml of full length (wild-type) HMGB1 and each HMGB1 mutant protein in Opti-MEM I medium for 8 hours, and conditioned supernatants (containing TNF which had been released from the cells) were collected and TNF released from the cells was measured by a standard murine fibroblast L929 (ATCC) cytotoxicity bioassay (Bianchi et al., supra) with the minimum detectable concentration of 30 pg/ml. Recombinant mouse TNF was obtained from R & D Systems Inc., (Minneapolis, Minn.) and used as control in these experiments. Data in FIG. 1 are all presented as mean+SEM unless otherwise indicated. (N=6-10).
To further examine the effect of HMGB1 B box on cytokine production, varying amounts of HMGB1 B box were evaluated for the effects on TNF, IL-1 B, and IL-6 production in murine macrophage-like RAW 264.7 cells. Conditioned media were harvested and measured for TNF, IL-1β and IL-6 levels. TNF levels were measured as described herein, and IL-1β and IL-6 levels were measured using the mouse IL-1β and IL-6 enzyme-linked immunosorbent assay (ELISA) kits (R&D System Inc., Minneapolis, Minn.) and N>5 for all experiments.
The kinetics of B box-induced TNF release was also examined. TNF release and TNF mRNA expression was measured in RAW 264.7 cells induced by B box polypeptide or GST tag polypeptide only used as a control (vector) (10 μg/ml) for 0 to 48 hours. Supernatants were analyzed for TNF protein levels by an L929 cytotoxicity assay (N=3-5) as described herein. For mRNA measurement, cells were plated in 100 mm plate and treated in Opti-MEM I medium containing B box polypeptide or the vector alone for 0, 4, 8, or 24 hours, as indicated in FIG. 2D. The vector only sample was assayed at the 4 hour time point. Cells were scraped off the plate and total RNA was isolated by RNAzol B method in accordance with the manufacturer's instructions (Tel-Test “B”, Inc., Friendswood, Tex.). TNF (287 bp) was measured by RNase protection assay (Ambion, Austin, Tex.). Equal loading and the integrity of RNA was verified by ethidium bromide staining of the RNA sample on agarose-formaldehyde gel. […] TNF mRNA expression was maximal at 4 hours and decreased at 8 and 24 hours. […] A similar study was carried out measuring TNF protein released from RAW 264.7 cells 0, 4, 8, 24, 32 or 48 hours after administration of B box or vector only (GST tag), using the L929 cytotoxicity assay described herein. […] Data are representative of three separate experiments. […]

| Molecule | TNF release by synthetic peptide fragment of B box (peptide 10 μg/ml, 10 hours) | TNF stimulating activity relative to full length B box and HMGB1 (peptide 10 μg/ml, 10 hours) | TNF release (1 μg/ml protein, 8 hours, RAW 264.7 cells) |
| --- | --- | --- | --- |
| 16-25: Synthetic peptide fragment, amino acids 16-25 of the HMGB1 B box (SEQ ID NO:20) (LFCSEYRPKI) | did not induce TNF release |  |  |
| 30-49: Synthetic peptide fragment, amino acids 30-49 of the HMGB1 B box (SEQ ID NO:20) (PGLSIGDVAKKLGEMWNNTA) | did not induce TNF release |  |  |
| 45-64: Synthetic peptide fragment, amino acids 45-64 of the HMGB1 B box (SEQ ID NO:20) (WNNTAADDKQPYEKKAAKLK) | did not induce TNF release |  |  |
| 60-74: Synthetic peptide fragment, amino acids 60-74 of the HMGB1 B box (SEQ ID NO:20) (AAKLKEKYEKDIAAY) | did not induce TNF release |  |  |
| fkdpnapkrlpsafflfcse (FKDPNAPKRLPSAFFLFCSE; not fully specified; printed as fkdpnapkrlpsafflfcse) [1-20-mer] | TNF-stimulating activity was retained | less potent than either the full length synthetic B box (1-74-mer), or full length HMGB1 |  |
| B1 |  |  | significantly stimulated TNF release |
